From US6787551B2, “Thiazolidinedione derivatives and pharmaceutical composition comprising the same” (Chong Kun Dang Pharmaceutical Corporation, priority 2002, dated 2004)
Read-outs that look alike come from different tables or passages of the source.

Legend:
[1] = test system: differentiated 3T3-L1 cell; experiment: 2-Deoxy-D-[2,6-3H] glucose uptake assay; assay type: cell-based; conditions: differentiated 3T3-L1 cells, 24 h with compound, 0.5 nM insulin, concentration giving 50% of maximum enhancement of insulin activation, read-out: 2-deoxyglucose uptake (EC50 nM)
Protocol: 1) 2-Deoxy-D-[2,6-3H] glucose uptake assay (in differentiated 3T3-L1 cell)
Undifferentiated adipocyte 3T3-L1 cells were inoculated in a 24-well plate and cultivated in a CO2 incubator at 37° C. To induce differentiation of the undifferentiated adipocytes, the cells were then incubated in a differentiation medium. After adding a certain concentration of each of the test compounds to the medium, the cells were again incubated for 24 hours. After removing the medium, the cells were washed with phosphate buffer, and 0.5 nM of insulin in phosphate buffer was added to the washed cells, followed by incubation for 40 minutes. Then, 0.5 uCi of 2-deoxy-D-[2,6-3H] glucose per well was again added to the cells, which were let stand for 4 minutes. Then, the cells were washed with phosphate buffer, and cell lysis buffer was added, so as to dissolve the cell membranes. The cell sample was placed into a liquid scintillation cocktail solution. The radioactivity of the sample was counted by a liquid scintillation counter.

3T3-L1 cells = experiment: Triglyceride accumulation assay; assay type: cell-based; conditions: 4 days with compound, concentration giving 50% of maximum enhancement of rosiglitazone activation
Protocol: 2) Triglyceride accumulation assay (in 3T3-L1 cells)
Undifferentiated adipocyte 3T3-L1 cells were inoculated in a 24-well plate and cultivated in a CO2 incubator at 37° C. To induce differentiation of the undifferentiated adipocytes, the cells were then incubated in a differentiation medium for 48 hours. After adding a certain concentration of each of the test compounds to the differentiation medium, the cells were again incubated for 4 days. Then, the final cell sample was placed into 200 μl of 2-propanol. The amount of triglyceride in the cells were measured by Triglyceride Kit [YEONGDONG PHARMACEUTICAL CO. LTD., Korea] commercially available.

[2] = test system: mice with diabetes (KK/Ay); experiment: Blood glucose- and blood lipid-lowering action in mice with diabetes; assay type: in vivo; conditions: male KK/Ay mice, daily oral administration for 5 days; for Blood glucose (ED25): dose reducing blood glucose by 25%; for Triglyceride (ED25): dose reducing triglyceride by 25%
Protocol: Male mice with diabetes (KK/Ay: 10 weeks old, 5 animals/group) were housed and given free access to water and food. The animals received a daily oral administration of the test compounds for 5 days. After the last dose, a blood sample was drawn via the orbital sinus.
The plasma was analyzed for blood glucose content using the Glucose-E kit (YEONGDONG PHARMACEUTICAL CO. LTD., Korea), and for triglyceride content using the Triglyceride kit (YEONGDONG PHARMACEUTICAL CO. LTD., Korea).

[3] = test system: primary cultured rat hepatocytes; experiment: Cytotoxicity assay in primary cultured rat hepatocytes (neutral red); conditions: for Safety index (TC25 nM/EC50 nM): TC25 in hepatocyte cytotoxicity assay / EC50 in triglyceride accumulation assay; for Cytotoxicity in hepatocyte (TC25 uM): primary rat hepatocytes, 24 h, neutral red, 25% toxic concentration
Protocol: Hepatocytes isolated from rat were inoculated in a collagen-coated 24 well plate and was incubated in a CO2 incubator at 37° C. for 24 hours. Then, a certain concentration of each of the test compounds was added, and the cells were again incubated for 24 hours. The cells were then incubated in a 0.4% neutral red containing medium for 4 hours and washed once with phosphate buffer. 0.5 ml of a solution of 1% acetic acid-50% ethanol was added to the cells, which were let stand. 200 ul of the cell sample was taken and absorbance was measured at 570 nm. The cytotoxicity assay performed on hepatocytes was measured as 25% toxic concentration (TC25, uM). Then, the safety index, i.e. the TC25 value in the cytotoxicity assay in hepatocyte/the EC50 value in the triglyceride accumulation assay, was calculated.

Row | Compound | EC50 [1] [nM] | EC50 (3T3-L1 cells) [nM] | Blood glucose (ED25) [2] [mg/kg] | Triglyceride (ED25) [2] | Safety index (TC25 nM/EC50 nM) [3] | Cytotoxicity in hepatocyte (TC25 uM) [3] [nM] | EC50 ([1]; Mus musculus) [nM] | EC50 (3T3-L1 cells; Mus musculus, 96 h) [nM]
1 | CCOc1ccc(Oc2cc(N(C)CCOc3ccc(CC4SC(=O)NC4=O)cc3)ncn2)cc1 (stereo not drawn) [Ex. 26, 5-(4-[2-(N-methyl-N-(6-(4-(4-ethoxy)phenoxy)pyrimidinyl)amino)ethoxy]benzyl)-2,4-thiazolidinedione] | 14.4 | 7.7 | 0.8 | 4.3 mg/kg | 12338 | 95000 |  | 
2 | CN(CCOc1ccc(C=C2SC(=O)NC2=O)cc1)c1cc(Oc2ccc(-c3ccccc3)cc2)ncn1 [Ex. 12, 5-(4-[2-(N-methyl-N-(6-(4-(4-phenyl)phenoxy)pyrimidinyl)amino)ethoxy]benzylidene)-2,4-thiazolidinedione] | 49.5 | 46.8 | 4.1 | 25 mg/kg | 1816 | 85000 |  | 
3 | CN(CCOc1ccc(CC2SC(=O)NC2=O)cc1)c1ccccn1 (stereo not drawn) [Rosiglitazone, reference compound] |  |  | 4.1 | More than 30 mg/kg | 1489 | 70000 | 75 | 47
4 | CCc1ccc(Oc2cc(N(C)CCOc3ccc(CC4SC(=O)NC4=O)cc3)ncn2)cc1 (stereo not drawn) [Ex. 28, 5-(4-[2-(N-methyl-N-(6-(4-(4-ethyl)phenoxy)pyrimidinyl)amino)ethoxy]benzyl)-2,4-thiazolidinedione] | 5.2 | 2.1 | 1.8 | 16.9 mg/kg | 40476 | 85000 |  | 
5 | CC(C)Oc1ccc(Oc2cc(N(C)CCOc3ccc(CC4SC(=O)NC4=O)cc3)ncn2)cc1 (stereo not drawn) [Ex. 27, 5-(4-[2-(N-methyl-N-(6-(4-(4-isopropoxy)phenoxy)pyrimidinyl)amino)ethoxy]benzyl)-2,4-thiazolidinedione] | 35.5 | 21.7 | 0.8 | 4.5 mg/kg | 3594 | 78000 |  | 
6 | 5-(4-[2-(N-methyl-N-(2-(4-(4-chloro)phenoxy)pyridinyl)amino)ethoxy]benzyl)-2,4-thiazolidinedione [Ex. 34] | 4 | 1.5 | 1.9 | 5.6 mg/kg | 48667 | 73000 |  | 
7 | 5-(4-[2-(N-methyl-N-2-(4-(4-isopropyl)pyridinyl)amino)ethoxy]benzyl)-2,4-thiazolidinedione [Ex. 36] | 20.9 | 16.3 | 3.5 | 14.9 mg/kg | 4663 | 76000 |  | 
8 | COc1ccc(Oc2ccnc(N(C)CCOc3ccc(CC4SC(=O)NC4=O)cc3)c2)cc1 (stereo not drawn) [Ex. 35, 5-(4-[2-(N-methyl-N-(2-(4-(4-methoxy)phenoxy)pyridinyl)amino)ethoxy]benzyl)-2,4-thiazolidinedione] | 19.3 | 9.6 | 2.5 | 9.1 mg/kg | 10000 | 96000 |  | 
9 | CN(CCOc1ccc(CC2SC(=O)NC2=O)cc1)c1cc(Oc2ccc(-c3ccccc3)cc2)ncn1 (stereo not drawn) [Ex. 31] | 20.5 | 12.5 | 3.2 | 12.6 mg/kg | 5840 | 73000 |  | 
10 | CN(CCOc1ccc(CC2SC(=O)NC2=O)cc1)c1cc(Oc2ccc(Cl)cc2)ncn1 (stereo not drawn) [Ex. 24, 5-(4-[2-(N-methyl-N-(6-(4-(4-chloro)phenoxy)pyrimidinyl)amino)ethoxy]benzyl)-2,4-thiazolidinedione] | 0.2 | 0.1 | 0.18 | 0.6 mg/kg | 750000 | 75000 |  | 
11 | 5-(4-[2-(N-methyl-N-(2-(4-(4-fluoro)phenoxy)pyridinyl)amino)ethoxy]benzyl)-2,4-thiazolidinedione [Ex. 33] | 8.9 | 5.6 | 1.1 | 6.5 mg/kg | 17679 | 99000 |  | 
12 | CN(CCOc1ccc(C=C2SC(=O)NC2=O)cc1)c1cc(Oc2ccccc2)ncn1 [Ex. 1] | 58 | 38 | 4.0 | 30 mg/kg | 2578 | 98000 |  | 
13 | CN(CCOc1ccc(C=C2SC(=O)NC2=O)cc1)c1cc(Oc2ccc(Cl)cc2)ncn1 [Ex. 5, 5-(4-[2-(N-methyl-N-(6-(4-(4-chloro)phenoxy)pyrimidinyl)amino)ethoxy]benzylidene)-2,4-thiazolidinedione] | 45 | 35 | 4.0 | 28 mg/kg | 2657 | 93000 |  | 
14 | CCc1ccc(Oc2cc(N(C)CCOc3ccc(C=C4SC(=O)NC4=O)cc3)ncn2)cc1 [Ex. 9, 5-(4-[2-(N-methyl-N-(6-(4-(4-ethyl)phenoxy)pyrimidinyl)amino)ethoxy]benzylidene)-2,4-thiazolidinedione] | 55.2 | 29.9 | 4.1 | 29 mg/kg | 3010 | 90000 |  | 
15 | CC(C)c1ccc(Oc2cc(N(C)CCOc3ccc(CC4SC(=O)NC4=O)cc3)ncn2)cc1 (stereo not drawn) [Ex. 30, 5-(4-[2-(N-methyl-N-(6-(4-(4-isopropyl)phenoxy)pyrimidinyl)amino)ethoxy]benzyl)-2,4-thiazolidinedione] | 13.3 | 6.5 | 2.1 | 21.2 mg/kg | 11077 | 72000 |  | 
16 | CN(CCOc1ccc(CC2SC(=O)NC2=O)cc1)c1cc(Oc2ccccc2)ncn1 (stereo not drawn) [Ex. 20, 5-(4-[2-(N-methyl-N-(6-(4-phenoxy)pyrimidinyl)amino)ethoxy]benzyl)-2,4-thiazolidinedione] | 7.5 | 2.7 | 0.22 | 1.2 mg/kg | 29630 | 80000 |  | 
17 | COc1ccc(Oc2cc(N(C)CCOc3ccc(CC4SC(=O)NC4=O)cc3)ncn2)cc1 (stereo not drawn) [Ex. 25, 5-(4-[2-(N-methyl-N-(6-(4-(4-methoxy)phenoxy)pyrimidinyl)amino)ethoxy]benzyl)-2,4-thiazolidinedione] | 0.2 | 0.11 | 0.15 | 0.5 mg/kg | 727272 | 80000 |  | 
18 | CN(CCOc1ccc(CC2SC(=O)NC2=O)cc1)c1cc(Oc2ccccc2)ccn1 (stereo not drawn) [Ex. 22, 5-(4-[2-(N-methyl-N-(2-(4-phenoxy)pyridinyl)amino)ethoxy]benzyl)-2,4-thiazolidinedione] | 1.8 | 0.54 | 0.7 | 3.9 mg/kg | 137037 | 74000 |  | 
19 | CN(CCOc1ccc(CC2SC(=O)NC2=O)cc1)c1cc(Oc2ccc(F)cc2)ncn1 (stereo not drawn) [Ex. 23, 5-(4-[2-(N-methyl-N-(6-(4-(4-fluoro)phenoxy)pyrimidinyl)amino)ethoxy]benzyl)-2,4-thiazolidinedione] | 2.4 | 0.81 | 0.25 | 2.2 mg/kg | 87654 | 71000 |  | 
